Where two headings read alike, the source gives them in different places. Starred links: 1 amine or outer side, 2 acyl side, 3 side chain; linkers in the order of their positions; H or OH if unused. Non-standard residues stand in square brackets, D forms with d. Groups on a side chain read outwards from the residue. No end group written: not given here. *: point of attachment. C18 diacid = O=C(O)CCCCCCCCCCCCCCCCC(=O)*; αMePhe(2-F) = C[C@](N)(Cc1ccccc1F)C(=O)O; γGlu = O=C(O)[C@H](CCC(=O)[*:2])N[*:1]; αMe4Pal = C[C@](N)(Cc1ccncc1)C(=O)O; αMeY = C[C@](N)(Cc1ccc(O)cc1)C(=O)O; 4Pal = N[C@@H](Cc1ccncc1)C(=O)O; αMeL = CC(C)C[C@](C)(N)C(=O)O; Orn = NCCC[C@H](N)C(=O)O; Dab = NCC[C@H](N)C(=O)O; AEEA = NCCOCCOCC(=O)O; Aib = CC(C)(N)C(=O)O Where only a bound is given, the exact number is not on record here.

Common to all, as to type: cell-based
In experiment [1] the target is human GcgR (Homo sapiens, UniProt P47871). As to the kind of experiment: Functional cAMP activity in the presence of 1% HSA. The conditions noted are these: read-out: cAMP Rel EC50, hGcgR.
Chain of human GcgR (P47871 26-477): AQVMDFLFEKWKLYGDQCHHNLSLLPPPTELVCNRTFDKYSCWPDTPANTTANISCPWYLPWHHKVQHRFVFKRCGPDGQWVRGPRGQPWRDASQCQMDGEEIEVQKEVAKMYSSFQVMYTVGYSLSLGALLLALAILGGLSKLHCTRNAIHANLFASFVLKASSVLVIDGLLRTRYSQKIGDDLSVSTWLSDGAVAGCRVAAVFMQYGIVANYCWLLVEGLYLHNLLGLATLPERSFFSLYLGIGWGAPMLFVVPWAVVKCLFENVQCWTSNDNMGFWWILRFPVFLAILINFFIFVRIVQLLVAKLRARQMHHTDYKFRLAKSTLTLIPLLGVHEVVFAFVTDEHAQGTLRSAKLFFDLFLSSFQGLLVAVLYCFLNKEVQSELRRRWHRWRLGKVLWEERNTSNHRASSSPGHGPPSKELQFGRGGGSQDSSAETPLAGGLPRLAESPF
Experiment [2] deals with hGcgR (Homo sapiens, UniProt P47871). As to the kind of experiment: Functional cAMP activation in the presence of 0.1% casein (no HSA). Particulars: read-out: Relative cAMP EC50, hGcgR.
Chain of hGcgR (P47871 26-477): as above
In experiment [3] the target is T1, hGIPR (Homo sapiens, UniProt P48546).
T1 sequence (P48546 22-466): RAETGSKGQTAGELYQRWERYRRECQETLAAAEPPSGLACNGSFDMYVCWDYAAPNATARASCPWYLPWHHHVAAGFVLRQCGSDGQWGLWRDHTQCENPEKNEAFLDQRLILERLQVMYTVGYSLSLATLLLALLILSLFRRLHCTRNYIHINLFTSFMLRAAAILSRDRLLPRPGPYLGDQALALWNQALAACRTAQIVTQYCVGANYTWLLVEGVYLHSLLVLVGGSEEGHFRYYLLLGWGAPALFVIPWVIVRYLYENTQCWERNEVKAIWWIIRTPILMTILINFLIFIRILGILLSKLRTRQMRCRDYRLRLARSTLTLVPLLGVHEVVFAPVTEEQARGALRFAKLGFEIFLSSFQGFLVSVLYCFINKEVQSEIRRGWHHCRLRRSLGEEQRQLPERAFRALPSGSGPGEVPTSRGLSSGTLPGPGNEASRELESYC
As to the kind of experiment: Functional cAMP activity in the presence of 1% HSA. The conditions noted are these: read-out: cAMP Rel EC50, hGIPR.

Experiment [4] has as its target T1, hGIPR. As to the kind of experiment: Functional cAMP activation in the presence of 0.1% casein (no HSA). Particulars: read-out: Relative cAMP EC50, hGIPR.
Experiment [5] deals with hGLP-1R (Homo sapiens, UniProt P43220). Described as above. Particulars: read-out: Relative cAMP EC50, hGLP-1R.
Chain of hGLP-1R (P43220 24-463): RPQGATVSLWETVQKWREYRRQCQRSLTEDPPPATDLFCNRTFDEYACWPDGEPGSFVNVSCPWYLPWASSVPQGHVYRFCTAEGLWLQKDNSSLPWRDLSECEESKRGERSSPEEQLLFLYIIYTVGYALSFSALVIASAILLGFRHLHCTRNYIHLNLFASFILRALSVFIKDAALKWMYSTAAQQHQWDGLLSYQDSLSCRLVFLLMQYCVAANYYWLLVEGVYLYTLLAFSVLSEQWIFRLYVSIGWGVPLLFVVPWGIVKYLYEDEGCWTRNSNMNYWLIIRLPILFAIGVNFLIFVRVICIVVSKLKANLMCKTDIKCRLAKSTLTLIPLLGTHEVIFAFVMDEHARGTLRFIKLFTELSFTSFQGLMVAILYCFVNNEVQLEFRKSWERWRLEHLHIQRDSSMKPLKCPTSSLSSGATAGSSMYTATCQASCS
[6] abbreviates: in the presence of 0.1% casein (no HSA), geometric mean.
[7] abbreviates: HEK-293 clonal cell line, in the presence of 1% HSA, geometric mean of relative EC50.
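Wherever Relative cAMP EC50, hGIPR is given: intracellular cAMP rise after 30 min at 37 °C read by HTRF against a standard curve, scaled between buffer alone (0%) and top control ligand concentration (100%), four-parameter fit.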
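Wherever Relative cAMP EC50, hGLP-1R is given: intracellular cAMP rise after 30 min at 37 °C read by HTRF, normalized between buffer only (0%) and maximal control ligand (100%), four-parameter variable-slope fit.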
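Wherever Relative cAMP EC50, hGcgR is given: intracellular cAMP rise after 30 min at 37 °C, read by HTRF against a cAMP standard curve, scaled from buffer only (0%) to maximal control ligand response (100%).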

Usually EC50 stands for the concentration needed to bring the measured effect to its halfway point. Regarding `CC[C@H](C)[C@H](NC(=O)[C@H](CO)NC(=O)[C@H](Cc1ccc(O)cc1)NC(=O)[C@H](CC(=O)O)NC(=O)[C@H](CO)NC(=O)[C@@H](NC(=O)[C@H](Cc1ccccc1)NC(=O)[C@@H](NC(=O)CNC(=O)[C@H](CCC(=O)O)NC(=O)[C@H](C)NC(=O)[C@@H](N)Cc1ccc(O)cc1)[C@@H](C)O)[C@@H](C)CC)C(=O)N[C@@H](C)C(=O)N[C@@H](CCSC)C(=O)N[C@@H](CC(=O)O)C(=O)N[C@@H](CCCCN)C(=O)N[C@H](C(=O)N[C@@H](Cc1c[nH]cn1)C(=O)N[C@@H](CCC(N)=O)C(=O)N[C@@H](CCC(N)=O)C(=O)N[C@@H](CC(=O)O)C(=O)N[C@@H](Cc1ccccc1)C(=O)N[C@H](C(=O)N[C@@H](CC(N)=O)C(=O)N[C@@H](Cc1c[nH]c2ccccc12)C(=O)N[C@@H](CC(C)C)C(=O)N[C@@H](CC(C)C)C(=O)N[C@@H](C)C(=O)N[C@@H](CCC(N)=O)C(=O)N[C@@H](CCCCN)C(=O)NCC(=O)N[C@@H](CCCCN)C(=O)N[C@@H](CCCCN)C(=O)N[C@@H](CC(N)=O)C(=O)N[C@@H](CC(=O)O)C(=O)N[C@@H](Cc1c[nH]c2ccccc12)C(=O)N[C@@H](CCCCN)C(=O)N[C@@H](Cc1c[nH]cn1)C(=O)N[C@@H](CC(N)=O)C(=O)N[C@H](C(=O)N[C@H](C(=O)N[C@@H](CCC(N)=O)C(N)=O)[C@@H](C)O)[C@@H](C)CC)C(C)C)[C@@H](C)CC` [hGIP 1-42 amide], the EC50 was more than 9950 nM in experiment [1] and more than 99.5 nM in experiment [2] (setting [6]).
Consider “H-Y[Aib]QGTFTSDFS[Orn][αMeL]LDKK([γGlu-γGlu-C18 diacid])AQ[Aib]AFIEYLLAGGPSSGAPPPEGSEE-NH2 [Example 1051]”, for which the EC50 is 32.6 nM in experiment [3] (setting [7]); 0.172 nM in experiment [4] (setting [6]); 1800 nM in experiment [1] (setting [7]); 10.3 nM in experiment [2] (setting [6]); 8.3 nM in experiment [5] (setting [6]).
For “H-Y[Aib]QGTFTSDFS[Orn][αMeL]LD[Orn]K([γGlu-γGlu-C18 diacid])AQ[Aib]AFIE[αMe4Pal]LLAGGPSSGAPPPEGSEE-NH2 [Example 1053]”, in that order: 19.3 nM, 0.123 nM, 3470 nM, 10.4 nM and 6.2 nM.
For the molecule “H-Y[Aib]QGTFTSD[4Pal]SQ[αMeL]LD[Orn]K([Glu-γGlu-C18 diacid])AQ[αMe4Pal]AFIEYLLAGGPSSGAPPPSGSEE-NH2 [Example 1057]”, the EC50 amounted to 25.9 nM in experiment [3]; 0.128 nM in experiment [4] (setting [6]); 2780 nM in experiment [1]; 5.29 nM in experiment [2] (setting [6]); 5.16 nM in experiment [5] (setting [6]).
As to “H-Y[Aib]QGTFTSD[4Pal]SQ[αMeL]LD[Orn]K([γGlu-γGlu-C18 diacid])AQ[αMe4Pal]AFIEYLLAGGPSSGAPPPSGSEE-NH2 [Example 1056]”, the EC50 was 29.6 nM in experiment [3]; 0.0929 nM in experiment [4] (setting [6]); 1650 nM in experiment [1]; 3.98 nM in experiment [2] (setting [6]); 4.25 nM in experiment [5] (setting [6]).
In the case of “H-Y[Aib]QGTFTSD[4Pal]SR[αMeL]LDKK([AEEA-γGlu-C18 diacid])AQ[Aib]AFIEYLIE[Aib]SPSSGAPPPSGS-NH2 [Example 807]”, the values for the EC50 in experiment [4] (setting [6]), in experiment [2] (setting [6]) and in experiment [5] (setting [6]) were 0.108 nM, 12.4 nM and 1.72 nM, respectively.
Taken in the same sequence, the figures for “H-Y[Aib]QGTFTSD[4Pal]S[Dab][αMeL]LDKK([AEEA-γGlu-C18 diacid])AQ[Aib]AFIEYLIE[Aib]GPSSGAPPPSGS-NH2 [Example 803]” were 0.232 nM, 9.75 nM and 2.02 nM.
As to “H-Y[Aib]QGTFTSD[4Pal]S[Dab][αMeL]LD[Orn]K([γGlu-γGlu-C18 diacid])AQ[αMe4Pal]AFIE[αMe4Pal]LLAGGPSSGAPPPEGSEE-NH2 [Example 1055]”, the EC50 in experiment [3] (setting [7]) was found to be 78.9 nM; in experiment [4] (setting [6]) it was 0.366 nM; in experiment [1] (setting [7]), 450 nM; in experiment [2] (setting [6]) it was 1.88 nM; in experiment [5] (setting [6]) it was 14.6 nM.
Turning to “H-Y[Aib]QGTFTSD[4Pal]S[Orn][αMeL]LDKK([Glu-γGlu-C18 diacid])AQ[αMe4Pal]AFIEYLIAGGPSSGAPPPSGSEE-NH2 [Example 1060]”, the EC50 in experiment [3] was 44.7 nM; in experiment [4] (setting [6]), 0.223 nM; in experiment [1], 4900 nM; in experiment [2] (setting [6]) it was 9.08 nM; in experiment [5] (setting [6]), 2.85 nM.
Regarding “H-Y[Aib]QGTFTSD[4Pal]S[Orn][αMeL]LD[Orn]K([Glu-Glu-γGlu-C18 diacid])AQ[αMe4Pal]AFIEYLIAGGPSSGAPPPSGSEE-NH2 [Example 1062]”, the EC50 came to 67.5 nM in experiment [3]; 0.726 nM in experiment [4] (setting [6]); 2380 nM in experiment [1]; 8.77 nM in experiment [2] (setting [6]); 7.75 nM in experiment [5] (setting [6]).
For “H-Y[Aib]QGTFTSD[4Pal]S[Orn][αMeL]LD[Orn]K([Glu-γGlu-C18 diacid])AQ[αMe4Pal]AFIEYLIAGGPSSGAPPPSGSEE-NH2 [Example 1061]”, in that order: 55.6 nM, 0.656 nM, 2910 nM, 17.3 nM and 4.56 nM.
Taken in the same sequence, the figures for “H-Y[Aib]QGTFTSD[4Pal]S[Orn][αMeL]LD[Orn]K([γGlu-γGlu-C18 diacid])AQ[αMe4Pal]AFIEYLIAGGPSSGAPPPSGSEE-NH2 [Example 1059]” were 48.9 nM, 0.468 nM, 748 nM, 7.52 nM and 4.61 nM.
“H-Y[Aib]QGT[αMePhe(2-F)]TSD[4Pal]SILLDKK([γGlu-γGlu-C18 diacid])AQ[Aib]AFIEYLTEGGPSSGAPPPSGTE-NH2 [Example 554]”: the EC50 is 4.08 nM in experiment [3]; 0.0323 nM in experiment [4]; 946 nM in experiment [1]; 6.83 nM in experiment [2]; 0.423 nM in experiment [5].
As to “Y[Aib]QGTFTSD[4Pal]SQ[αMeL]LD[Orn]K([dE-γGlu-C18 diacid])AQ[αMe4Pal]AFIE[αMeY]LLEGGPSSGAPPPSGSEE-NH2 [Example 1058]”, the EC50 in experiment [3] stood at 45.6 nM; in experiment [4] (setting [6]) it was 0.139 nM; in experiment [1], 1450 nM; in experiment [2] (setting [6]), 5.8 nM; in experiment [5] (setting [6]), 4.48 nM.

The record behind these values is patent US20240270821A1, “GIP/GLP1/GCG TRI-RECEPTOR AGONISTS AND USES THEREOF” (priority 2023, published 2024).
